Reference: paper PMC11984905, “Chiral Switch of Gadopiclenol: New Standards in MRI Probes” (Advanced Science, 2025)

Assay: Kinetic inertness: dissociation of Gd(III)-complexes in 0.01–1.0 M HCl followed by HPLC
Type: physicochemical
Settings: for k d at pH = 7.4: dissociation rate calculated at pH 7.4, 25 °C; for k1: proton-assisted dissociation, 25 °C, [H+]≤0.15 M: [Na+]+[H+]=0.15 M; for acid-catalyzed dissociation, times slower than Gd(III)-complex with BT-DO3A / acid-catalyzed dissociation, times slower than Gd(III)-complex with HP-DO3A: ratio of k1
Source text: The kinetic inertness of the Gd(III)‐complexes with the different isomers formed by rac‐L1 and rac‐L2 was characterized by the rates of the dissociation reactions taking place in 0.01–1.0 M HCl solution. The dissociation reactions were followed by measuring the integral values of the Gd(III)‐complexes with the different isomers of rac‐L1 and rac‐L2 ligands with HPLC. The conditions of the HPLC experiments for the kinetic studies of the Gd(III)‐complexes with rac‐L1 and rac‐L2 ligands are summarized in Tables S1 and S2 (Supporting Information), respectively. The samples were kept at 25 °C in a well‐closed vessel. For the HPLC analysis, 100 µL samples were withdrawn from the solutions. The measurements were performed with 0.2 mM solution of Gd(III)‐complexes. The pseudo‐first‐order rate constants (k d) were calculated by fitting the HPLC integral – t data pairs to Equation (1). (1) At=Ar−Ave^−kdt+Av where A r, A v, and A t are the integral values of the reactants, the product, and reaction time t. The temperature was maintained at 25 °C and the ionic strength of the solutions was kept constant at [H^+]≤0.15 M, [HCl]+[NaCl] = 0.15 M. The calculation of the kinetic parameters was performed by the fitting of the absorbance – time and relaxation rate – time data pairs with the Micromath Scientist computer program (version 2.0, Salt Lake City, UT, USA).
The dissociation reactions of Gd(III)-complexes with the different isomers formed by rac-L1 and rac-L2 have been studied by HPLC method (Tables S1 and S2) at 25 °C in 0.01 – 1.0 M HCl solution to guarantee the pseudo-first-order kinetic condition. Area values as a function of time for the dissociation reactions of Gd(III)-complexes formed with the different stereoisomers of rac-L1 obtained at 25 °C in 1.0 M HCl solution are shown in Figure S48.
In the presence of HCl excess, the decomplexation of Gd(III)-complexes can be treated as a pseudo-first-order process and the reaction rate can be expressed by Equation (S9), where kd is a pseudo-first-order rate constant, [GdL]t and [GdL]tot are the concentrations of the GdL species at time t and the total concentration of the complex, respectively.
The rates of the dissociation reactions have been studied at different concentrations of HCl ([HCl]=0.01 – 1.0 M, 25 °C). The kd values obtained for the Gd(III)-complexes with the different isomers of rac-L1 and rac-L2 ligands as a function of [H^+] are shown in Figures S49 and S50.
The obtained kd pseudo-first order rate constants are directly proportional to the concentration of H^+. The increase in the kd values with increasing concentration of H^+ can be interpreted in terms of the proton assisted dissociation of Gd(III)-complexes. […] The proton assisted dissociation of Gd(III)-complexes might be explained by the equilibrium formation of a protonated *Gd(HL) intermediate (Equation (S11)), which dissociates spontaneously (Equation (12)).
where k0, and k1 = kGdHL×K^HGdHL are the rate constants characterizing the spontaneous and proton-assisted dissociation of Gd(III)-complexes. The protonation constant (K^HGdHL) of Gd(DOTA)-like complexes are very small (Gd(DOTA): K^HGdHL =14).^[22] By considering very low protonation constant of Gd(III)-complexes with A, C and D isomers of rac-L1 and A’, C’ and D’ isomers of rac-L2 ligands (K^HGdHL<<10), the denominator of Equation (S14) (1>> K^HGdHL [H^+]) can be neglected, so Equation (S14) can be simplified in the form of Equation (S15). The k0 and k1 values of the Gd(III) complexes with A, C and D isomers of rac-L1, and A’, C’ and D’ isomers of rac-L2 ligands have been calculated by fitting of the kinetic data (Figures S49 and S50) to Equation (S15).
The k1 rate and logK^HGdHL protonation constants characterizing the acid-catalyzed decomplexation of Gd(III)-complexes formed with the different stereoisomers of rac-L1 and rac-L2 are presented and compared with those of [Gd(PCTA)], [Gd(DOTA)]^-, [Gd(HP-DO3A)] and [Gd(BT-DO3A)] in Table S19.

Compound | k d at pH = 7.4 (listed as RRR/SSS (C)) | k d at pH = 7.4 (listed as [Gd(rac-L1)] C (RRR/SSS)) | k1 | k d at pH = 7.4 (listed as RRR/SSS (D′)) | k d at pH = 7.4 (listed as [Gd(rac-L2)] D’ (RRR/SSS)) | acid-catalyzed dissociation, times slower than Gd(III)-complex with BT-DO3A [times] | acid-catalyzed dissociation, times slower than Gd(III)-complex with HP-DO3A [times]
O=C([O-])CCC(C(=O)[O-])N1CCN(C(CCC(=O)[O-])C(=O)[O-])Cc2cccc(n2)CN(C(CCC(=O)[O-])C(=O)[O-])CC1.[Gd+3] (racemic) [[Gd(ent‐L1)]^3−] | RRR/SSS (C): 5.61 × 10^−14 s^−1 | 5.61×10^-14 s^−1 | (1.4±0.1) ×10^-6 M^-1s^-1 |  |  |  | 
O=C(CCC(C(=O)[O-])N1CCN(C(CCC(=O)NCC(O)CO)C(=O)[O-])Cc2cccc(n2)CN(C(CCC(=O)NCC(O)CO)C(=O)[O-])CC1)NCC(O)CO.[Gd+3] (stereo not drawn) [[Gd(ent‐L2)]] |  |  | (4.4±0.2) ×10^-6 M^-1s^-1 | RRR/SSS (D′): 1.74 × 10^−13 s^−1 | 1.74×10^-13 s^−1 |  | 
O=C(O)CCC(C(=O)O)N1CCN(C(CCC(=O)O)C(=O)O)Cc2cccc(n2)CN(C(CCC(=O)O)C(=O)O)CC1 (stereo not drawn) [ent‐L1] |  |  |  |  |  | 24 | 207
O=C(CCC(C(=O)O)N1CCN(C(CCC(=O)NCC(O)CO)C(=O)O)Cc2cccc(n2)CN(C(CCC(=O)NCC(O)CO)C(=O)O)CC1)NCC(O)CO (stereo not drawn) [ent‐L2] |  |  |  |  |  | 7 | 66
